Reference: patent publication US20220162191A1, “SMALL MOLECULE MODULATORS OF IL-17” (LEO PHARMA A/S, priority 2019, published 2022)

biological target: T1, human IL-17AA (Homo sapiens, UniProt Q16552); experiment: IL-8 release assay in human epithelial keratinocytes adult (HEKa); assay type: cell-based; settings: 3 ng/ml human IL-17AA + 10 ng/ml human TNFalpha, 68-72 h, IL-8 by HTRF, read-out: Rel EC50 L-8 release assay
T1 construct: host or cells: HEK (human embryonic kidney) cells
T1 sequence (Q16552 24-155) 1: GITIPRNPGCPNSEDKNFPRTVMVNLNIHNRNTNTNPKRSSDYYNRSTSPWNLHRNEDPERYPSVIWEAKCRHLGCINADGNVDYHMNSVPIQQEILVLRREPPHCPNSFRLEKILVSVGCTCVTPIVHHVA
T1 sequence (Q16552 24-155) 2: T1 sequence (Q16552 24-155) 1
In short: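 Adult human keratinocytes in Epilife with HKGS minus hydrocortisone, treated with compound then stimulated with final 3 ng/ml HEK-derived human IL-17AA plus 10 ng/ml TNF-alpha for 68–72 h at 37 °C; TNF-alpha alone defines 100% inhibition. Secreted IL-8 by HTRF; relative IC50 and Emax from four-parameter fits.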

Row | EC50 [nM] | Structure (SMILES)
1 | < 100 | Cc1n[nH]c(C)c1-c1ccc(NC(=O)[C@@H](NC(=O)C2(F)CC2)[C@@H]2CCCc3ccc(-c4ccc(=O)n(C(C)C)c4)cc32)cc1O [Example 47, N-[(1S)-2-[4-(3,5-dimethyl-1H-pyrazol-4-yl)-3-hydroxy-anilino]-1-[(1R)-7-(1-isopropyl-6-oxo-3-pyridyl)tetralin-1-yl]-2-oxo-ethyl]-1-fluoro-cyclopropanecarboxamide]
2 | > 1000 | CC(C)n1cc(-c2ccc(Cl)c(CC(NC(=O)OCC3(C)CC3)C(=O)Nc3ccc(-c4nncn4C)cc3)c2)ccc1=O (centres unmarked) [Example 106, (1-methylcyclopropyl)methyl N-[1-[[2-chloro-5-(1-isopropyl-6-oxo-3-pyridyl)phenyl]methyl]-2-[4-(4-methyl-1,2,4-triazol-3-yl)anilino]-2-oxo-ethyl]carbamate]
3 | < 100 | Cc1cnn(C)c1-c1ccc(NC(=O)[C@@H](NC(=O)OC(C)(C)C)[C@@H](c2cccc(-c3ccnc(N4C[C@@H]5C[C@H]4CO5)c3)c2)C2CC2)cc1 [Example 346, tert-butyl N-[(1S)-1-[(R)-cyclopropyl-[3-[2-[(1S,4S)-2-oxa-5-azabicyclo[2.2.1]heptan-5-yl]-4-pyridyl]phenyl]methyl]-2-[4-(2,4-dimethylpyrazol-3-yl)anilino]-2-oxo-ethyl]carbamate]
4 | 100 to 1000 | Cc1cnn(C)c1-c1ccc(NC(=O)[C@H](Cc2cc(-c3ccc(=O)n(C(C)C)c3)ccc2Cl)NC(=O)CC2CCC2)cc1 [Example 335, (2S)-3-[2-chloro-5-(1-isopropyl-6-oxo-3-pyridyl)phenyl]-2-[(2-cyclobutylacetyl)amino]-N-[4-(2,4-dimethylpyrazol-3-yl)phenyl]propanamide]
5 | < 100 | Cn1cncc1-c1ccc(NC(=O)C(Cc2cc(-c3cccc(C(C)(C)O)c3)ccc2Cl)NC(=O)c2ccnn2C)cc1 (centres unmarked) [Example 179, N-[1-[[2-chloro-5-[3-(1-hydroxy-1-methyl-ethyl)phenyl]phenyl]methyl]-2-[4-(3-methylimidazol-4-yl)anilino]-2-oxo-ethyl]-2-methyl-pyrazole-3-carboxamide]
6 | 100 to 1000 | Cc1nccn1-c1ccc(NC(=O)[C@H](Cc2cc(-c3ccnc(C(O)C4CC4)c3)ccc2Cl)NC(=O)C2(F)CC2)cc1 (stereo partly drawn) [Example 126, N-[(1S)-1-[[2-chloro-5-[2-[cyclopropyl(hydroxy)methyl]-4-pyridyl]phenyl]methyl]-2-[4-(2-methylimidazol-1-yl)anilino]-2-oxo-ethyl]-1-fluoro-cyclopropanecarboxamide]
7 | < 100 | Cc1n[nH]c(C)c1-c1ccc(NC(=O)[C@@H](NC(=O)c2ccnn2C)[C@@H]2CCCc3ccc(-c4ccc5c(c4)CNC5)cc32)cc1 [Example 35, N-[(1S)-2-[4-(3,5-dimethyl-1H-pyrazol-4-yl)anilino]-1-[(1R)-7-isoindolin-5-yltetralin-1-yl]-2-oxo-ethyl]-2-methyl-pyrazole-3-carboxamide]
8 | 100 to 1000 | Cc1nocc1C(=O)N[C@@H](Cc1cc(-c2ccnc(C(=O)C(C)(C)C)c2)ccc1Cl)C(=O)Nc1ccc(-c2nncn2C)cc1 [Example 84, N-[(1S)-1-[[2-chloro-5-[2-(2,2-dimethylpropanoyl)-4-pyridyl]phenyl]methyl]-2-[4-(4-methyl-1,2,4-triazol-3-yl)anilino]-2-oxo-ethyl]-3-methyl-isoxazole-4-carboxamide]
9 | 100 to 1000 | Cc1nccn1-c1ccc(NC(=O)C(Cc2cc(-c3ccc(=O)n(C(C)C)c3)ccc2Cl)NC(=O)OC(C)(C)C)cc1 (centres unmarked) [Example 67, tert-butyl N-[1-[[2-chloro-5-(1-isopropyl-6-oxo-3-pyridyl)phenyl]methyl]-2-[4-(2-methylimidazol-1-yl)anilino]-2-oxo-ethyl]carbamate]
10 | > 1000 | Cn1cnnc1-c1ccc(NC(=O)C(Cc2cc(-c3ccc(C#N)cc3)ccc2Cl)NC(=O)c2ccnn2C)cc1 (centres unmarked) [Example 308, N-[1-[[2-chloro-5-(4-cyanophenyl)phenyl]methyl]-2-[4-(4-methyl-1,2,4-triazol-3-yl)anilino]-2-oxo-ethyl]-2-methyl-pyrazole-3-carboxamide]
11 | < 100 | Cc1n[nH]c(C)c1-c1ccc(NC(=O)[C@@H](NC(=O)C2(F)CC2)[C@@H]2CCc3ccc(-c4cccc(N5C[C@@H]6C[C@H]5CN6)c4)cc32)cc1 [Example 373, N-[(1S)-1-[(1R)-6-[3-[(1S,4S)-2,5-diazabicyclo[2.2.1]heptan-2-yl]phenyl]indan-1-yl]-2-[4-(3,5-dimethyl-1H-pyrazol-4-yl)anilino]-2-oxo-ethyl]-1-fluoro-cyclopropanecarboxamide]
12 | 100 to 1000 | CN(C)[C@H]1CCN(c2cc(-c3ccc(Cl)c(CC(NC(=O)c4ccnn4C)C(=O)Nc4ccc(-c5cncn5C)cc4)c3)ccn2)C1 (stereo partly drawn) [Example 184, N-[1-[[2-chloro-5-[2-[(3S)-3-(dimethylamino)pyrrolidin-1-yl]-4-pyridyl]phenyl]methyl]-2-[4-(3-methylimidazol-4-yl)anilino]-2-oxo-ethyl]-2-methyl-pyrazole-3-carboxamide]
13 | 100 to 1000 | Cn1cncc1-c1ccc(NC(=O)C(Cc2cc(-c3ccnc(N4CC[C@@H](O)C4)c3)ccc2Cl)NC(=O)c2ccnn2C)cc1 (stereo partly drawn) [Example 192, N-[1-[[2-chloro-5-[2-[(3R)-3-hydroxypyrrolidin-1-yl]-4-pyridyl]phenyl]methyl]-2-[4-(3-methylimidazol-4-yl)anilino]-2-oxo-ethyl]-2-methyl-pyrazole-3-carboxamide]
14 | > 1000 | CC(C)n1cc(-c2ccc(Cl)c(C[C@H](NC(=O)C3(C(F)(F)F)CC3)C(=O)Nc3ccc(-c4nncn4C)cc3)c2)ccc1=O [Example 117, N-[(1S)-1-[[2-chloro-5-(1-isopropyl-6-oxo-3-pyridyl)phenyl]methyl]-2-[4-(4-methyl-1,2,4-triazol-3-yl)anilino]-2-oxo-ethyl]-1-(trifluoromethyl) cyclopropanecarboxamide]
15 | 100 to 1000 | Cc1nocc1C(=O)NC(Cc1cc(-c2cccc(C(=O)N(C)C3CC3)c2)ccc1Cl)C(=O)Nc1ccc(-c2nncn2C)cc1 (centres unmarked) [Example 107, N-[1-[[2-chloro-5-[3-[cyclopropyl(methyl)carbamoyl]phenyl]phenyl]methyl]-2-[4-(4-methyl-1,2,4-triazol-3-yl)anilino]-2-oxo-ethyl]-3-methyl-isoxazole-4-carboxamide]
16 | 100 to 1000 | Cc1cnn(C)c1-c1ccc(NC(=O)[C@H](Cc2cc(-c3ccc(=O)n(C(C)C)c3)ccc2Cl)NC(=O)c2ccno2)cc1 [Example 324, N-[(1S)-1-[[2-chloro-5-(1-isopropyl-6-oxo-3-pyridyl)phenyl]methyl]-2-[4-(2,4-dimethylpyrazol-3-yl)anilino]-2-oxo-ethyl]isoxazole-5-carboxamide]
17 | > 1000 | CC(c1cccc(-c2ccc(=O)n(C(C)C)c2)c1)[C@H](NC(=O)c1ccnn1C)C(=O)Nc1ccc(-c2cncn2C)cc1 (stereo partly drawn) [Example 56, N-[(1S)-2-[3-(1-isopropyl-6-oxo-3-pyridyl)phenyl]-1-[[4-(3-methylimidazol-4-yl)phenyl]carbamoyl]propyl]-2-methyl-pyrazole-3-carboxamide]
18 | < 100 | Cc1n[nH]c(C)c1-c1ccc(NC(=O)[C@@H](NC(=O)C2(F)CC2)[C@@H]2CCc3ccc(-c4ccnc(N5C[C@H]6C[C@@H]5CO6)c4)cc32)cc1 [Example 362, N-[(1S)-2-[4-(3,5-dimethyl-1H-pyrazol-4-yl)anilino]-1-[(1R)-6-[2-[(1R,4R)-2-oxa-5-azabicyclo[2.2.1]heptan-5-yl]-4-pyridyl]indan-1-yl]-2-oxo-ethyl]-1-fluoro-cyclopropanecarboxamide]
19 | 100 to 1000 | Cn1cnnc1-c1ccc(NC(=O)C(Cc2cc(-c3ccc(O)c(C4=NCCCO4)c3)ccc2Cl)NC(=O)c2ccnn2C)cc1 (centres unmarked) [Example 178, N-[1-[[2-chloro-5-[3-(5,6-dihydro-4H-1,3-oxazin-2-yl)-4-hydroxy-phenyl]phenyl]methyl]-2-[4-(4-methyl-1,2,4-triazol-3-yl)anilino]-2-oxo-ethyl]-2-methyl-pyrazole-3-carboxamide]
20 | 100 to 1000 | Cc1n[nH]c(C)c1-c1ccc(NC(=O)[C@@H](NC(=O)C2(F)CC2)[C@@H]2CCc3ccc(-c4cc(N5CC(F)C5)ncn4)cc32)cc1 [Example 376, N-[(1S)-2-[4-(3,5-dimethyl-1H-pyrazol-4-yl)anilino]-1-[(1R)-6-[6-(3-fluoroazetidin-1-yl)pyrimidin-4-yl]indan-1-yl]-2-oxo-ethyl]-1-fluoro-cyclopropanecarboxamide]
21 | < 100 | Cc1n[nH]c(C)c1-c1ccc(NC(=O)[C@@H](NC(=O)c2ccnn2C)[C@@H]2CCCc3ccc(-c4ccc5c(c4)CCN(C)C5)cc32)cc1 [Example 36, N-[(1S)-2-[4-(3,5-dimethyl-1H-pyrazol-4-yl)anilino]-1-[(1R)-7-(2-methyl-3,4-dihydro-1H-isoquinolin-6-yl)tetralin-1-yl]-2-oxo-ethyl]-2-methyl-pyrazole-3-carboxamide]
22 | > 1000 | Cc1ncn(C)c1-c1ccc(NC(=O)[C@@H](NC(=O)C2(F)CC2)C(C)c2cc(-c3ccc(=O)n(C(C)C)c3)ccc2Cl)cc1 (stereo partly drawn) [Example 52, N-[(1S)-2-[2-chloro-5-(1-isopropyl-6-oxo-3-pyridyl)phenyl]-1-[[4-(3,5-dimethylimidazol-4-yl)phenyl]carbamoyl]propyl]-1-fluoro-cyclopropanecarboxamide]
23 | 100 to 1000 | Cc1cc(-c2ccc3c(c2)[C@H]([C@H](NC(=O)C2(F)CC2)C(=O)Nc2ccc(-n4ccnc4C)cc2)CCC3)cn(C(C)C)c1=O [Example 406, 1-fluoro-N-[(1S)-1-[(1R)-7-(1-isopropyl-5-methyl-6-oxo-3-pyridyl)tetralin-1-yl]-2-[4-(2-methylimidazol-1-yl)anilino]-2-oxo-ethyl]cyclopropanecarboxamide]
